Results reported in patent publication US4419123A, “Herbicidal 4-trifluoromethyl-3'-carbon-substituted-4'-substituted diphenyl ethers” (Rohm and Haas Company, priority 1981, dated 1983).

What was measured:
[1] = Preemergence herbicidal activity (% control) against monocot weeds; assay type: in vivo; conditions: pre-emergence, 336 h, average, about two weeks after application, read-out: Herbicidal activity (% control), preemergence, monocots; for activity at 4483.4 g/ha: 4 lb./A.; for activity at 2241.7 g/ha: 2 lb./A.
Text: (§1) barnyardgrass (Echinochloa crusgalli) crabgrass (Digitaria spp.) nutsedge (Cyperus esculentus)
(§2) At 2 and 4 pounds per acre:
(§3) **Bermudagrass (Cynodon dactylon)
(§4) *downy brome (Bromus tectorum) foxtail (Setaria faberii)
(§5) Johnsongrass (Sorghum halepense) […]
(§6) quackgrass (Agropyron repens)
(§7) *ryegrass (Lolium perenne)
(§8) *wild oats (Avena factua)
(§9) *yellow millet (Panicum miliaceum)
(§10) The following test procedure is employed.

[2] = Postemergence herbicidal activity (% control) against monocot weeds; assay type: in vivo; conditions: post-emergence, 336 h, average, about two weeks after application, read-out: Herbicidal activity (% control), postemergence, monocots; for activity at 4483.4 g/ha: 4 lb./A.; for activity at 2241.7 g/ha: 2 lb./A.
Text: as §1, §2, §3, §4, §5, §6, §7, §8, §9, §10

snapbeans = assay: Crop tolerance (selective herbicidal activity), snapbeans; assay type: in vivo; conditions: preemergence applications
Protocol: as §10
(§11) Following the general test procedure of Example 37, diphenyl ethers are evaluated for significant tolerance (as shown by 50% or less kill of the test crop at levels of application which give more than 50% kill of many or all of the weeds of Example 73) towards some or all of the following common agronomic crops (not all compounds tested against all crops): alfalfa, snapbeans, corn, cotton, cucumbers, peanuts, rape, rice, safflower, soybeans, tomatoes, and wheat.

corn = assay: Crop tolerance (selective herbicidal activity), corn; assay type: in vivo
cotton = assay: Crop tolerance (selective herbicidal activity), cotton; assay type: in vivo; conditions: preemergence applications
Protocol: as §10, §11

peanuts = assay: Crop tolerance (selective herbicidal activity), peanuts; assay type: in vivo
rice = assay: Crop tolerance (selective herbicidal activity), rice; assay type: in vivo
soybeans = assay: Crop tolerance (selective herbicidal activity), soybeans; assay type: in vivo; conditions: preemergence applications
wheat = assay: Crop tolerance (selective herbicidal activity), wheat; assay type: in vivo
Protocol: as §10, §11

[3] = Preemergence herbicidal activity (% control) against dicot weeds; conditions: pre-emergence, 336 h; for activity at 4483.4 g/ha: read-out: Herbicidal activity (% control), preemergence, dicots, 4 lb./A., average, about two weeks after application; for activity at 2241.7 g/ha: read-out: Herbicidal activity (% control), preemergence, dicots, 2 lb./A., average, about two weeks after application
[4] = Postemergence herbicidal activity (% control) against dicot weeds; conditions: post-emergence, 336 h; for activity at 4483.4 g/ha: read-out: Herbicidal activity (% control), postemergence, dicots, 4 lb./A., average, about two weeks after application; for activity at 2241.7 g/ha: read-out: Herbicidal activity (% control), postemergence, dicots, 2 lb./A., average, about two weeks after application
[5] = tested on: Monocots (barnyardgrass, Bermudagrass, crabgrass, downy brome, foxtail, Johnsongrass, nutsedge, quackgrass, ryegrass, wild oats, yellow millet); assay: Preemergence herbicidal activity (% control) against monocot weeds; assay type: in vivo; conditions: average, about two weeks after application
Text: as §1, §2, §3, §4, §5, §6, §7, §8, §9, §10

[6] = tested on: Monocots (barnyardgrass, Bermudagrass, crabgrass, downy brome, foxtail, Johnsongrass, nutsedge, quackgrass, ryegrass, wild oats, yellow millet); assay: Postemergence herbicidal activity (% control) against monocot weeds; assay type: in vivo; conditions: average, about two weeks after application
Text: as §1, §2, §3, §4, §5, §6, §7, §8, §9, §10

[7] = tested on: Dicots (bindweed, cocklebur, coffeeweed, curly dock, lambsquarters, morningglory, pigweed, ragweed, smartweed, tomato, velvetleaf, wild carrot, wild mustard); assay: Preemergence herbicidal activity (% control) against dicot weeds; conditions: average, about two weeks after application
[8] = tested on: Dicots (bindweed, cocklebur, coffeeweed, curly dock, lambsquarters, morningglory, pigweed, ragweed, smartweed, tomato, velvetleaf, wild carrot, wild mustard); assay: Postemergence herbicidal activity (% control) against dicot weeds; conditions: average, about two weeks after application
[9] = postemergence applications or applications on transplanted rice

## CC(C)Oc1cc(Oc2ccc(C(F)(F)F)cc2Cl)ccc1[N+](=O)[O-] [Example 4]
[1]
  activity at 4483.4 g/ha: 98%
[2]
  activity at 4483.4 g/ha: 80%
snapbeans
  Tolerance to snapbeans: Tolerance (significant tolerance (as shown by 50% or less kill of the test crop at levels of application which give more than 50% kill of many or all of the weeds of Example 73))
corn; postemergence applications
  Tolerance to corn: Tolerance (significant tolerance (as shown by 50% or less kill of the test crop at levels of application which give more than 50% kill of many or all of the weeds of Example 73))
corn; preemergence applications
  Tolerance to corn: Tolerance (significant tolerance (as shown by 50% or less kill of the test crop at levels of application which give more than 50% kill of many or all of the weeds of Example 73))
cotton
  Tolerance to cotton: Tolerance (significant tolerance (as shown by 50% or less kill of the test crop at levels of application which give more than 50% kill of many or all of the weeds of Example 73))
peanuts; postemergence applications
  Tolerance to peanuts: Tolerance (significant tolerance (as shown by 50% or less kill of the test crop at levels of application which give more than 50% kill of many or all of the weeds of Example 73))
rice; preemergence applications
  Tolerance to rice: Tolerance (significant tolerance (as shown by 50% or less kill of the test crop at levels of application which give more than 50% kill of many or all of the weeds of Example 73))
soybeans
  Tolerance to soybeans: Tolerance (significant tolerance (as shown by 50% or less kill of the test crop at levels of application which give more than 50% kill of many or all of the weeds of Example 73))
wheat; postemergence applications
  Tolerance to wheat: Tolerance (significant tolerance (as shown by 50% or less kill of the test crop at levels of application which give more than 50% kill of many or all of the weeds of Example 73))
wheat; preemergence applications
  Tolerance to wheat: Tolerance (significant tolerance (as shown by 50% or less kill of the test crop at levels of application which give more than 50% kill of many or all of the weeds of Example 73))
[3]
  activity at 4483.4 g/ha: 100%
[4]
  activity at 4483.4 g/ha: 100%

## CCOC(=O)C(C)Oc1cc(Oc2ccc(C(F)(F)F)cc2Cl)ccc1[N+](=O)[O-] (stereo not drawn) [Example 26, 2-Chloro-α,α,α-trifluoro-p-tolyl-3-(1-carbethoxyethoxy)-4-nitrophenyl ether]
[1]
  activity at 2241.7 g/ha: 75%
  activity at 4483.4 g/ha: 98%
[2]
  activity at 2241.7 g/ha: 93%
  activity at 4483.4 g/ha: 99%
snapbeans
  Tolerance to snapbeans: Tolerance (significant tolerance (as shown by 50% or less kill of the test crop at levels of application which give more than 50% kill of many or all of the weeds of Example 73))
corn; postemergence applications
  Tolerance to corn: Tolerance (significant tolerance (as shown by 50% or less kill of the test crop at levels of application which give more than 50% kill of many or all of the weeds of Example 73))
soybeans
  Tolerance to soybeans: Tolerance (significant tolerance (as shown by 50% or less kill of the test crop at levels of application which give more than 50% kill of many or all of the weeds of Example 73))
wheat; preemergence applications
  Tolerance to wheat: Tolerance (significant tolerance (as shown by 50% or less kill of the test crop at levels of application which give more than 50% kill of many or all of the weeds of Example 73))
[3]
  activity at 2241.7 g/ha: 99%
  activity at 4483.4 g/ha: 100%
[4]
  activity at 2241.7 g/ha: 100%
  activity at 4483.4 g/ha: 100%

## C#CC(C)Oc1cc(Oc2ccc(C(F)(F)F)cc2Cl)ccc1[N+](=O)[O-] (centres unmarked) [Example 30]
[1]
  activity at 2241.7 g/ha: 78%
  activity at 4483.4 g/ha: 81%
[2]
  activity at 2241.7 g/ha: 91%
  activity at 4483.4 g/ha: 75%
cotton
  Tolerance to cotton: Tolerance (significant tolerance (as shown by 50% or less kill of the test crop at levels of application which give more than 50% kill of many or all of the weeds of Example 73))
peanuts; preemergence applications
  Tolerance to peanuts: Tolerance (significant tolerance (as shown by 50% or less kill of the test crop at levels of application which give more than 50% kill of many or all of the weeds of Example 73))
rice; [9]
  Tolerance to rice: Tolerance (significant tolerance (as shown by 50% or less kill of the test crop at levels of application which give more than 50% kill of many or all of the weeds of Example 73))
rice; preemergence applications
  Tolerance to rice: Tolerance (significant tolerance (as shown by 50% or less kill of the test crop at levels of application which give more than 50% kill of many or all of the weeds of Example 73))
soybeans
  Tolerance to soybeans: Tolerance (significant tolerance (as shown by 50% or less kill of the test crop at levels of application which give more than 50% kill of many or all of the weeds of Example 73))
wheat; postemergence applications
  Tolerance to wheat: Tolerance (significant tolerance (as shown by 50% or less kill of the test crop at levels of application which give more than 50% kill of many or all of the weeds of Example 73))
[3]
  activity at 2241.7 g/ha: 94%
  activity at 4483.4 g/ha: 99%
[4]
  activity at 2241.7 g/ha: 100%
  activity at 4483.4 g/ha: 100%

## O=C([O-])c1cc(Oc2ccc(C(F)(F)F)cc2Cl)ccc1[N+](=O)[O-].[Na+] [Example 48A, Sodium 5-(2-Chloro-4-trifluoromethylphenoxy)-2-nitrobenzoate]
[5]; 2 lb./A.
  Herbicidal activity (% control), preemergence, monocots: 89%
[5]; 4 lb./A.
  Herbicidal activity (% control), preemergence, monocots: 99%
[6]; 2 lb./A.
  Herbicidal activity (% control), postemergence, monocots: 86%
[6]; 4 lb./A.
  Herbicidal activity (% control), postemergence, monocots: 92%
[7]; 2 lb./A.
  Herbicidal activity (% control), preemergence, dicots: 84%
[7]; 4 lb./A.
  Herbicidal activity (% control), preemergence, dicots: 98%
[8]; 2 lb./A.
  Herbicidal activity (% control), postemergence, dicots: 98%
[8]; 4 lb./A.
  Herbicidal activity (% control), postemergence, dicots: 100%

## CCN(CCO)c1cc(Oc2ccc(C(F)(F)F)cc2Cl)ccc1[N+](=O)[O-] [Example 54]
[1]
  activity at 2241.7 g/ha: 98%
  activity at 4483.4 g/ha: 83%
[2]
  activity at 2241.7 g/ha: 71%
  activity at 4483.4 g/ha: 79%
corn; postemergence applications
  Tolerance to corn: Tolerance (significant tolerance (as shown by 50% or less kill of the test crop at levels of application which give more than 50% kill of many or all of the weeds of Example 73))
corn; preemergence applications
  Tolerance to corn: Tolerance (significant tolerance (as shown by 50% or less kill of the test crop at levels of application which give more than 50% kill of many or all of the weeds of Example 73))
peanuts; postemergence applications
  Tolerance to peanuts: Tolerance (significant tolerance (as shown by 50% or less kill of the test crop at levels of application which give more than 50% kill of many or all of the weeds of Example 73))
rice; [9]
  Tolerance to rice: Tolerance (significant tolerance (as shown by 50% or less kill of the test crop at levels of application which give more than 50% kill of many or all of the weeds of Example 73))
rice; preemergence applications
  Tolerance to rice: Tolerance (significant tolerance (as shown by 50% or less kill of the test crop at levels of application which give more than 50% kill of many or all of the weeds of Example 73))
soybeans
  Tolerance to soybeans: Tolerance (significant tolerance (as shown by 50% or less kill of the test crop at levels of application which give more than 50% kill of many or all of the weeds of Example 73))
wheat; postemergence applications
  Tolerance to wheat: Tolerance (significant tolerance (as shown by 50% or less kill of the test crop at levels of application which give more than 50% kill of many or all of the weeds of Example 73))
wheat; preemergence applications
  Tolerance to wheat: Tolerance (significant tolerance (as shown by 50% or less kill of the test crop at levels of application which give more than 50% kill of many or all of the weeds of Example 73))
[3]
  activity at 4483.4 g/ha: 75%
[4]
  activity at 2241.7 g/ha: 100%
  activity at 4483.4 g/ha: 100%
